These results are taken from ChEMBL document CHEMBL5523756, “Molecular Transformers: Adaptive Multitarget Ligands for Esterase-Induced Transition from Analgesics to Anesthetics” (J Med Chem, 2024).

The IC50 is the concentration at which inhibition is half-maximal. Lower therefore signals greater potency.

Active and inactive are the calls of the source. No cut-off for these calls is given here. Bounds are passed on as bounds.

Series [1] in a line: Stability of compound assessed as porcine liver esterase mediated propofol release by measuring half life at 1 mg/ml by HPLC analysis. Format: ADME, Sus scrofa. Conditions: pig, isolated protein.
The nature of series [2]: Toxicity in ICR mouse assessed as histopathological changes in heart at 1.5 times ED50, iv administered as single dose and measured after 14 days by H and E staining based analysis. Format: organism-based. Particulars: in vivo, 336 h, time 14 day.
Series [3] has as its target Sodium channel protein type 10 subunit alpha (Homo sapiens, UniProt Q9Y5Y9). The experiment in a line: Inhibition of Nav1.8 channel (unknown origin) at half inactivation state at -120 mV conditioning pulse by voltage clamp electrophysiological recording.
Series [4] is described as follows: Toxicity in Sprague-Dawley rat assessed as effect on LDH level at 19 mg/kg administered as continuous infusion followed by maintenance at 3.25 mg/kg/min for 0 to 20 mins, 2.5 mg/kg/min for 20 to 30 mins and 2 mg/kg/min for 30 to 60 mins. Format: organism-based. Particulars: in vivo, other, 1 h, route par.
For series [5], the target named is Sodium channel protein type 9 subunit alpha (Homo sapiens, UniProt Q15858). The experiment in a line: Inhibition of Nav1.7 channel (unknown origin) at resting state at -120 mV conditioning pulse by voltage clamp electrophysiological recording.
The subject of another series is Mus musculus. The experiment in a line: Antiseizure activity in iv dosed ICR mouse model of PTZ-induced acute seizure assessed as reduction in maximum seizure class preadministered for 1 min followed by PTZ treatment and measured for 15 mins by Racine's scale based analysis. Format: functional, organism-based. Particulars: time 16.0 min.
Series [6] in a line: Toxicity in Sprague-Dawley rat assessed as effect on respiratory frequency at 19 mg/kg administered as continuous infusion followed by maintenance at 3.25 mg/kg/min for 0 to 20 mins, 2.5 mg/kg/min for 20 to 30 mins and 2 mg/kg/min for 30 to 60 mins and measured every 5 mins for 60 mins by whole-body plethysmography. The class given is organism-based. Conditions: in vivo, other, 1 h, route par.

The nature of series [7]: Toxicity in Sprague-Dawley rat assessed as effect on gastrointestinal function by measuring ink peristalsis at 19 mg/kg administered as continuous infusion followed by maintenance at 3.25 mg/kg/min for 0 to 20 mins, 2.5 mg/kg/min for 20 to 30 mins and 2 mg/kg/min for 30 to 60 mins and further administered with ink suspension and measured after 10 mins. The class given is organism-based. Particulars: in vivo, other, 1.167 h, route par, time 70 min.

Sodium channel protein type 9 subunit alpha, sequence (Q15858 whole entry): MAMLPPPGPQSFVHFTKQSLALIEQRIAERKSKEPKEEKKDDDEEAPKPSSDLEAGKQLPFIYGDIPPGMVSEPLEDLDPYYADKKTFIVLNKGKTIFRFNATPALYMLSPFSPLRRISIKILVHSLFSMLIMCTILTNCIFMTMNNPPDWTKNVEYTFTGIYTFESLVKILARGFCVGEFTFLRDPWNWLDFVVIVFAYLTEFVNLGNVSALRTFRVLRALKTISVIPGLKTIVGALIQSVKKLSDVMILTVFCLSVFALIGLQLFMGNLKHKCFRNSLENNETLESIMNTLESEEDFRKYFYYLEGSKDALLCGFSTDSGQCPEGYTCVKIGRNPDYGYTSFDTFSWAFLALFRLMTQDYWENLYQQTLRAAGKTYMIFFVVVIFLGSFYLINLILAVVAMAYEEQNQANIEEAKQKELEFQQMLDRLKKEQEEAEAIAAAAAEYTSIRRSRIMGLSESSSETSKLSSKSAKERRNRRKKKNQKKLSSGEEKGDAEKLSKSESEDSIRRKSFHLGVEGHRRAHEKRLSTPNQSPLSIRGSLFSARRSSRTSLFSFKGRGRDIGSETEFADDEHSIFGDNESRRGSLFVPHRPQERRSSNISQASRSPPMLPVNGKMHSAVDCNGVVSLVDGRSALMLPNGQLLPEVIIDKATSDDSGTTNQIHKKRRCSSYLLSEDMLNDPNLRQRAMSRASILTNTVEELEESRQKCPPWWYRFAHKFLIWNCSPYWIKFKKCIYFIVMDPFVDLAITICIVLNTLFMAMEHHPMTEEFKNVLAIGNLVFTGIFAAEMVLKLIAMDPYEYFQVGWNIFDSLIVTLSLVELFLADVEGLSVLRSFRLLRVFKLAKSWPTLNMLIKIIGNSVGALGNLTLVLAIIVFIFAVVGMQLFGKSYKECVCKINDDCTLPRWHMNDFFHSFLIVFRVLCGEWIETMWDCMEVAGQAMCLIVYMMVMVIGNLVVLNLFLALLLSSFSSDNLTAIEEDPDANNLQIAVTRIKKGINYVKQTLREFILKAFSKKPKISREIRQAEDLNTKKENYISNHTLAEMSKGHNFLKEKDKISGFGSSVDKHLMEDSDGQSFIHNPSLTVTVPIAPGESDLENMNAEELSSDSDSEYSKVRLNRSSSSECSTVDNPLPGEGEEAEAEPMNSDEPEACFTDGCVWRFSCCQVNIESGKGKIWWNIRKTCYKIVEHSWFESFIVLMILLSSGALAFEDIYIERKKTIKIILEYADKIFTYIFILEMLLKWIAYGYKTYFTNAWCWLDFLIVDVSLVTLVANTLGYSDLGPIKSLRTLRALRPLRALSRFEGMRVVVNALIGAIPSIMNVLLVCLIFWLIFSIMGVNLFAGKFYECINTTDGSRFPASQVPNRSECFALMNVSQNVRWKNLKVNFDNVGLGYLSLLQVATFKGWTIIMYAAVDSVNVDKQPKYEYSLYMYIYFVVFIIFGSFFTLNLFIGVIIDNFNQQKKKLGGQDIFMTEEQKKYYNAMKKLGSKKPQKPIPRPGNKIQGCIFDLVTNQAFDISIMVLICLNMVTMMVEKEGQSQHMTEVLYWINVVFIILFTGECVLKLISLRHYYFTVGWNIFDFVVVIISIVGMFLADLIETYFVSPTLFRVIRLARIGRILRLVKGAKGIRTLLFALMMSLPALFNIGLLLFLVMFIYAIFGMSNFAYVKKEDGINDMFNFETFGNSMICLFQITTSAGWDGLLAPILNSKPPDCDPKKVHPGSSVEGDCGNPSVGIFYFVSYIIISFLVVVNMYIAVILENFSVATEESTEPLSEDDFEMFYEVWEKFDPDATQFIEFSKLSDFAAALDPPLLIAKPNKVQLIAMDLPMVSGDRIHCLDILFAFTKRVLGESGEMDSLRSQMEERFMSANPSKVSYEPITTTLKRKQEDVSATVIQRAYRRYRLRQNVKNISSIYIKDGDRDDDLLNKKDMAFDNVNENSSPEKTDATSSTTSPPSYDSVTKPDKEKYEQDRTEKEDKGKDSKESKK
Sodium channel protein type 10 subunit alpha, sequence (Q9Y5Y9 whole entry, the tested form may be a part): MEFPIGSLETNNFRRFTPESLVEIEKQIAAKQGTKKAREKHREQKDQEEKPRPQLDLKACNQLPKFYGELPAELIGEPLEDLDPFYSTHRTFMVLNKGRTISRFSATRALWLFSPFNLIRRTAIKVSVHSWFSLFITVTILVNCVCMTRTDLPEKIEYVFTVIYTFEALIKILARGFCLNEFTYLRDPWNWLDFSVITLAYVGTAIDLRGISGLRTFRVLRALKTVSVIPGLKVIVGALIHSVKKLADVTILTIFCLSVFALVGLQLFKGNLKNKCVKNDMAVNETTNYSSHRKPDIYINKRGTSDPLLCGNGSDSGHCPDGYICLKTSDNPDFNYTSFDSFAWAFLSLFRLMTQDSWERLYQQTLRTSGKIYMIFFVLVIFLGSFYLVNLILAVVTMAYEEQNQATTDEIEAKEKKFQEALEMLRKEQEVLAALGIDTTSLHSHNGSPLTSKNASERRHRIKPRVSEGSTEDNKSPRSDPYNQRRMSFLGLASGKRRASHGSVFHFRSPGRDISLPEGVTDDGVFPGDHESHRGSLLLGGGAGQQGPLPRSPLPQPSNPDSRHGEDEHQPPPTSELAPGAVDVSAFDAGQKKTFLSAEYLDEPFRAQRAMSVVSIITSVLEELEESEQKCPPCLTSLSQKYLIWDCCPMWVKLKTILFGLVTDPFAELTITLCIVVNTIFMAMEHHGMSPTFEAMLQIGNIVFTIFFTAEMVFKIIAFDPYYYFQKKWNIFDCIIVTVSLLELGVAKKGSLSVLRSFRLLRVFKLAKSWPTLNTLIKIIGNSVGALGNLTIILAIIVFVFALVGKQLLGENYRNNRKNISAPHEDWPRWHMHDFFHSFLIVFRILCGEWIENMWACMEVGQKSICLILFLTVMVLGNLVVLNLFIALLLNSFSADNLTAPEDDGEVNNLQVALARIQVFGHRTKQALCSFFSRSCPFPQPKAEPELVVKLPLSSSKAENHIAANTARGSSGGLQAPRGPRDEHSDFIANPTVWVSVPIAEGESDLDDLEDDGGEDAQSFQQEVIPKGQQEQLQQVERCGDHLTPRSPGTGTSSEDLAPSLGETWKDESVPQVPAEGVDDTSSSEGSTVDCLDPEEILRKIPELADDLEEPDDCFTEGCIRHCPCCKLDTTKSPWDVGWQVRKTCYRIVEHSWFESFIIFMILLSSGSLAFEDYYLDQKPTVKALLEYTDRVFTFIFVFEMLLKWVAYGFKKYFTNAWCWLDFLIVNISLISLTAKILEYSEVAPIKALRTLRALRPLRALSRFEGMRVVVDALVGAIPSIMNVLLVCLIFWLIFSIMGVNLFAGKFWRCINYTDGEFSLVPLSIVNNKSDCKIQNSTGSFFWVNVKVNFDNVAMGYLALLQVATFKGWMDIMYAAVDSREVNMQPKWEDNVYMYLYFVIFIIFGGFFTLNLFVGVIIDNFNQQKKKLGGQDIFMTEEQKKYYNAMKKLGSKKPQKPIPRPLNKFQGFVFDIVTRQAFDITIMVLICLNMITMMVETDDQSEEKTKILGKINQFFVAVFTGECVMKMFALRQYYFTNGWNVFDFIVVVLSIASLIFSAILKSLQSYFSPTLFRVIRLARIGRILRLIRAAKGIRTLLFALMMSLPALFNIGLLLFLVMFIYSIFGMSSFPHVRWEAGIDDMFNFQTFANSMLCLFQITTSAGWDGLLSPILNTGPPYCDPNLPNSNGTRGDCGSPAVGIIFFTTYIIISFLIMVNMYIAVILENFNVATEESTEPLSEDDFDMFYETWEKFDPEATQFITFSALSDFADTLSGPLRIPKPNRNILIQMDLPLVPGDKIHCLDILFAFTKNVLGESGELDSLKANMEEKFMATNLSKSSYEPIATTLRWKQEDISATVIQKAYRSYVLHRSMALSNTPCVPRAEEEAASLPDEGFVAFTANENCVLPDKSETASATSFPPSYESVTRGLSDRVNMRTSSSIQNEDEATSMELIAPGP

With `CCN(CC)CCOC(=O)Oc1c(C(C)C)cccc1C(C)C.Cl`, the t1/2 in series [1] turned out to be 8.609 min. Besides, the Activity entry in series [2], in series [4], in series [6] and in series [7] was “Non-Toxic” in each case. The results for the concentration for half-maximal inhibition (IC50) in series [3] and in series [5] were 1.92 µM and above 30 µM, respectively. Further, the outcome with Mus musculus was Active.
